Assay [1] addresses T1, GPR37 (Homo sapiens, UniProt O15354).
T1 sequence (O15354 27-613): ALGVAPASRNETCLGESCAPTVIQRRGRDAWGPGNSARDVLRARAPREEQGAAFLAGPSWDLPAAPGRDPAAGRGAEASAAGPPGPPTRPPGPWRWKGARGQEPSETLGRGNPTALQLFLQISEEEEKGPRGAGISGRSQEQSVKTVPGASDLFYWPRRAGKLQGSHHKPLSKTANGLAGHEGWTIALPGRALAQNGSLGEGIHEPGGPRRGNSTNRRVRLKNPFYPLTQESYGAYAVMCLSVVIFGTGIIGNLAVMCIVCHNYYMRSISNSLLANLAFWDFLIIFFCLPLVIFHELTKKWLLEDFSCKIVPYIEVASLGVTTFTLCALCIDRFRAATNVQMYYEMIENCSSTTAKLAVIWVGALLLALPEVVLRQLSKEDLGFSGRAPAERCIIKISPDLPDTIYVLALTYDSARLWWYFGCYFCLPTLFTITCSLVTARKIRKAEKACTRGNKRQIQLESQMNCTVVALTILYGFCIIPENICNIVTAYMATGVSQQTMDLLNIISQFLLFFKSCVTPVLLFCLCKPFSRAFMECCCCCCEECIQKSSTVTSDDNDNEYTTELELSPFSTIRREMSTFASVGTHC
Put plainly: lipid overlay dot blot: ligand-coated PVDF membrane with lysates of HEK293T cells with and without GPR37.

Assay [2] addresses T1, GPR37. Briefly: Ca2+ imaging in HEK293T cells expressing human GPR37 versus mock; lipid overlay dot blot with GPR37-HEK293T lysate. Type of assay: cell-based.

Structures are written as SMILES.

As a reminder, the EC50 is the concentration giving half of the maximal effect.

Consider `CC/C=C\C[C@H](O)\C=C/C=C/C=C/[C@H](O)C/C=C\C/C=C\CCC(=O)O` [NPD1, neuroprotectin D1], for which the “lipid overlay dot blot: ligand-coated PVDF membrane with lysates of HEK293T cell” value on GPR37 [1] was “Lipid overlay assays further confirmed direct binding of PDX and NPD1 to GPR37”.

As for `CC/C=C\C[C@H](O)/C=C/C=C\C=C\[C@@H](O)C/C=C\C/C=C\CCC(=O)O` [PDX, Protectin DX], the response on GPR37 [2] was half-maximal at 23.5 nM (EC50).

Values taken from article PMC12807480, “Protectin DX resolves fracture-induced postoperative pain in mice via neuronal signaling and GPR37-activated macrophage efferocytosis” (The Journal of Clinical Investigation, 2026).
